Columns and labels:
human CYP11B1 = human CYP11B1 (Homo sapiens (Human), UniProt P15538); experiment: G-402 cellular enzyme assay, human CYP11B1 (cortisol release); type: cell-based; conditions: G-402 cells, 1 μM Deoxycortisol
Text: (§1) Herein we identified the use of the G-402 cell line as a host cell to ectopically express (transiently or stably) enzymes of the CYP11 family. Specifically we developed stable G-402 cells expressing ectopically human CYP11B1, human CYP11B2, human CYP11A1, cynmolgus CYP11B1 or cynomolgus CYP11B2 enzyme activity. Importantly the identified cell line G-402 expresses co-factors (adrenodoxin and adrenodoxin reductase) important for the activity of the CYP11 family and no relevant enzyme activity of the CYP11 family (in comparison to H295R cells) was detected in these cells. Therefore the G-402 cell line is uniquely suited as a host cell for the ectopic expression of enzymes from the CYP11 family. G-402 cells can be obtained from ATCC (CRL-1440) and were originally derived from a renal leiomyoblastoma.
(§2) The expression plasmids contains the ORF for either human/cyno CYP11B1 or CYP11B2 under the control of a suitable promoter (CMV-promoter) and a suitable resistance marker (neomycin). Using standard techniques the expression plasmid is transfected into G-402 cells and these cells are then selected for expressing the given resistance markers. Individual cell-clones are then selected and assessed for displaying the desired enzymatic activity using 11-Deoxycorticosterone (Cyp11B2) or 11-Deoxycortisol (Cyp11B1) as a substrate.
(§3) G-402 cells expressing CYP11 constructs were established as described above and maintained in McCoy's 5a Medium Modified, ATCC Catalog No. 30-2007 containing 10% FCS and 400 μg/ml G418 (Geneticin) at 37° C. under an atmosphere of 5% CO2/95% air. Cellular enzyme assays were performed in DMEM/F12 medium containing 2.5% charcoal treated FCS and appropriate concentration of substrate (0.3-10 uM 11-Deoxycorticosterone, 11-Deoxycortisol or Corticosterone). For assaying enzymatic activity, cells were plated onto 96 well plates and incubated for 16 h. An aliquot of the supernatant is then transferred and analyzed for the concentration of the expected product (Aldosterone for CYP11B2; Cortisol for CYP11B1). The concentrations of these steroids can be determined using HTRF assays from CisBio analyzing either Aldosterone or Cortisol.
(§4) Inhibition of the release of produced steroids can be used as a measure of the respective enzyme inhibition by test compounds added during the cellular enzyme assay. The dose dependent inhibition of enzymatic activity by a compound is calculated by means of plotting added inhibitor concentrations (x-axes) vs. measured steroid/product level (y-axes). The inhibition is then calculated by fitting the following 4-parameter sigmoidal function (Morgan-Mercer-Flodin (MMF) model) to the raw data points using the least squares method:
(§5) [formula] wherein, A is the maximum y value, B is the EC50 factor determined using XLFit, C is the minimum y value and D is the slope value.
(§6) EC50 values for compounds claimed herein were tested with the G402-based assay system described. Cyp11B2 enzyme activity was tested in presence of 1 μM Deoxycorticosterone and variable amounts of inhibitors; Cyp11B1 enzyme activity was tested in presence of 1 μM Deoxycortisol and variable amounts of inhibitors.

human CYP11B2 = human CYP11B2 (Homo sapiens (Human), UniProt P19099); experiment: G-402 cellular enzyme assay, human CYP11B2 (aldosterone release); type: cell-based; conditions: G-402 cells, 1 μM Deoxycorticosterone
Text: as §1, §2, §3, §4, §5, §6

[1] = test system: rat model of chronic kidney disease; conditions: cited from earlier work; for plasma aldosterone: FAD286: 4 weeks of treatment, spironolactone: 4 and 8 weeks of treatment; for angiotensin II and salt-stimulated PAI-1 mRNA expression: aorta and heart; for renal effects of angiotensin II and high salt (albuminuria, azotemia, renovascular hypertrophy, glomerular injury, PAI-1, osteopontin mRNA, tubulointerstitial fibrosis): rat, in vivo
[2] = test system: rats with experimental heart failure; conditions: rat, in vivo; cited from earlier work
[3] = test system: patients with primary aldosteronism; conditions: oral; cited from earlier work

human CYP11B2, sequence (P19099 25-503): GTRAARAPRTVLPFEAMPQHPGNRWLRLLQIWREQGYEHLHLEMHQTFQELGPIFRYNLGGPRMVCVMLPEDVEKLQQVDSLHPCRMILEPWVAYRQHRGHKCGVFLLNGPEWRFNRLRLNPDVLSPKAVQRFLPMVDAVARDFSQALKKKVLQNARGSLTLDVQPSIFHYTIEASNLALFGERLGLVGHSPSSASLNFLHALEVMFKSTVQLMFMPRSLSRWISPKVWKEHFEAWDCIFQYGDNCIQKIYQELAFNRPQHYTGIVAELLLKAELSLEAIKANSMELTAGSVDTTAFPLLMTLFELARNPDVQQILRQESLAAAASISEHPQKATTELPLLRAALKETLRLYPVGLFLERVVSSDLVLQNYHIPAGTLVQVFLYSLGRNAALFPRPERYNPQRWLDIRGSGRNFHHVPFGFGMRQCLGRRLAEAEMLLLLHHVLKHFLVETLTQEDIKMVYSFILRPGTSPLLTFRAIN
human CYP11B1, sequence (P15538 25-503): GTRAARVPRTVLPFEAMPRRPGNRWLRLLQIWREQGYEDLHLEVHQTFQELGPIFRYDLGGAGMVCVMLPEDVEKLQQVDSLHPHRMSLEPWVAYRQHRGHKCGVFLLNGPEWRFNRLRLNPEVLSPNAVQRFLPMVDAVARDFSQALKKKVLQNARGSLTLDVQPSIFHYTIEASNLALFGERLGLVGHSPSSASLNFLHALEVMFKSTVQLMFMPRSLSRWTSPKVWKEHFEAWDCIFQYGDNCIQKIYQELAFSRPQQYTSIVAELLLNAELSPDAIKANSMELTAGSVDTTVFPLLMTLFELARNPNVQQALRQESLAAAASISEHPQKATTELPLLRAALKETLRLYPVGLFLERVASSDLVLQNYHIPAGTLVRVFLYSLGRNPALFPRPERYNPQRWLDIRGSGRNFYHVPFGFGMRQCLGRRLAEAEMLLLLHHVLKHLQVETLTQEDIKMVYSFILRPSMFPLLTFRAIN

Row | SMILES | EC50 (human CYP11B1) | EC50 (human CYP11B2) | other results
1 | O=C(CC1CCCc2c(-c3ccc(C(F)(F)F)cc3F)cncc21)NC1CC1 (racemic) [Example 30, (rac)-N-Cyclopropyl-2-[4-[2-fluoro-4-(trifluoromethyl)phenyl]-5,6,7,8-tetrahydroisoquinolin-8-yl]acetamide] | 0.448 µM | 0.037 µM | –
2 | O=C(CC1CCCc2c(-c3ccc(C(F)(F)F)cc3F)cncc21)NCC1CC1 (racemic) [Example 31, (rac)-N-(Cyclopropylmethyl)-2-[4-[2-fluoro-4-(trifluoromethyl)phenyl]-5,6,7,8-tetrahydroisoquinolin-8-yl]acetamide] | 1.78 µM | 0.071 µM | –
3 | CN(C)C(=O)CC1CCCc2c(-c3ccc(C(F)(F)F)cc3F)cncc21 (single isomer, unassigned; (-)) [Example 28, (−)-(R or S)-2-[4-[2-fluoro-4-(trifluoromethyl)phenyl]-5,6,7,8-tetrahydroisoquinolin-8-yl]-N,N-dimethyl-acetamide] | 9.11 µM | 0.133 µM | –
4 | N#Cc1ccc([C@H]2CCCc3cncn32)cc1 [FAD286] | – | – | plasma aldosterone [1]: reduced; angiotensin II and salt-stimulated PAI-1 mRNA expression [1]: not; renal effects of angiotensin II and high salt (albuminuria, azotemia, renovascular hypertrophy, glomerular injury, PAI-1, osteopontin mRNA, tubulointerstitial fibrosis) [1]: prevented; blood pressure and cardiovascular function and structure [2]: improved; kidney function and morphology [2]: improve
5 | N#Cc1ccc([C@H]2CCc3cncn32)c(F)c1 [LCI699] | – | – | blood pressure [3]: mildly decreased; circulating aldosterone levels [3]: significantly lower; hypokalemia [3]: corrected
6 | CC(=O)S[C@@H]1CC2=CC(=O)CC[C@]2(C)[C@H]2CC[C@@]3(C)[C@@H](CC[C@@]34CCC(=O)O4)[C@H]12 [spironolactone] | – | – | plasma aldosterone [1]: increased; angiotensin II and salt-stimulated PAI-1 mRNA expression [1]: enhanced; renal effects of angiotensin II and high salt (albuminuria, azotemia, renovascular hypertrophy, glomerular injury, PAI-1, osteopontin mRNA, tubulointerstitial fibrosis) [1]: prevented

Continued by falling EC50 (human CYP11B1), values first:

Row | EC50 (human CYP11B1) | EC50 (human CYP11B2) | SMILES | other results
7 | 5.06 µM | 0.222 µM | COCCNC(=O)CC1CCCc2c(-c3ccc(C(F)(F)F)cc3F)cncc21 (racemic) [Example 32, (rac)-2-[4-[2-Fluoro-4-(trifluoromethyl)phenyl]-5,6,7,8-tetrahydroisoquinolin-8-yl]-N-(2-methoxyethyl)acetamide] | –
8 | 4.08 µM | 0.212 µM | CCNC(=O)CC1CCCc2c(-c3ccc(C(F)(F)F)cc3F)cncc21 (racemic) [Example 29, (rac)-N-Ethyl-2-[4-[2-fluoro-4-(trifluoromethyl)phenyl]-5,6,7,8-tetrahydroisoquinolin-8-yl]acetamide] | –
9 | 3.08 µM | 0.032 µM | CN(C)C(=O)CC1CCCc2c(-c3ccc(C(F)(F)F)cc3F)cncc21 (racemic) [Example 26, (rac)-2-[4-[2-Fluoro-4-(trifluoromethyl)phenyl]-5,6,7,8-tetrahydroisoquinolin-8-yl]-N,N-dimethyl-acetamide] | –
10 | 1.49 µM | 0.036 µM | CN(C)C(=O)CC1CCCc2c(-c3ccc(C(F)(F)F)cc3F)cncc21 (single isomer, unassigned; (+)) [Example 27, (+)-(R or S)-2-[4-[2-fluoro-4-(trifluoromethyl)phenyl]-5,6,7,8-tetrahydroisoquinolin-8-yl]-N,N-dimethyl-acetamide] | –
